Source: patent publication US20110028758A1, “Trans-cinnamic acid derivative, its preparation mathod and the use” (priority 2007, published 2011)
Read-outs that look alike come from different tables or passages of the source.

Columns and labels:
[1] = system: human breast cancer MCF-7/S cells; assay: MTT anti-tumor test in vitro, MCF-7/S; type: cell-based; conditions: MCF-7 (MCF-7/S)
Text: (§1) A complete culture medium is used for diluting the above original solution into corresponding concentrations for later use.
(§2) Human cervical carcinoma Hela cells, human hepatoma BEL-7402 cells, mucinous Human epidermoid A549 lung cancer cells, human breast cancer MCF-7/S cells, human glioma U251 cells, and human normal embryonic kidney HEK-293 cells are purchased from USA, American Type Culture Collection (ATCC). All the tumor cells are used the DMEM medium (containing 10% FBS, 100 U/ml penicillin and 100 μg/ml streptomycin) for culturing and subculturing, and HEK-293 cells are using RPMI1640 medium (10% FBS, 100 U/ml penicillin, and 100 μg/ml streptomycin) for culturing and subculturing, wherein the culture condition is in a 5% CO2 incubator at 37° C.
(§3) Subculture six kinds of cells, which has a logarithmic growing period, adherent rate about 80%, and in good condition, such as human cervical carcinoma Hela cells, human hepatoma BEL-7402 cells, mucinous Human epidermoid A549 lung cancer cells, human breast cancer MCF-7/S cells, human glioma U251 cells, and human normal embryonic kidney HEK-293 cells. Discard the culture medium, rinse 1-2 times with PBS to remove serum, add 1 ml 0.25% Trypsin-0.01% EDTA (37° C. incubation) to digest for 1-2 minutes, add FBS culture medium to terminate the above digestion, centrifuge at a speed below 800 r/min for 2-3 minutes and discard the supernatant, re-suspended cells in 10% FBS medium, tack the cell suspension liquid for cell counting, adjust the density of the above liquid to 1×10^5/ml, then inoculate to a 96-holes plates (100 μl/hole), and then incubate in 5% CO2 incubator at 37° C. overnight. The next day add above cells to different concentrations of I-a, I-b, I-c and I-d, 100 μl/hole (its final concentration is respectively 30, 60, 120, 240, 480 μg/ml); meanwhile, set up the blank control group (0 μM), and establish 3 holes. Continuing the cultural process, discard the culture medium after 48 hours that the drug has been effected, add 100 μl PBS of 0.5 mg/ml MTT (PH 7.2) into each holes, after 4 hours culture, remove the culture medium by adherent cells express flipping method, add 100 μl of DMSO to each holes, oscillate it by micro-oscillation device for 5 minutes, and measure the OD value at 490 nm wavelength. Repeat the above experiment three times to get an average value. Calculate the inhibition rate (IR %) of the tumor cell proliferation in vitro from different concentrations of I-a, I-b, I-c, I-d by the following formula:
(§4) IR %=(1−ODsampale/ODcontrol)×100%
(§5) Use SPSS11.5 software to calculate the half inhibitory concentration IC50 of I-a, I-b, I-c and I-d. The results are shown in Table 2 to illustrate IC50 values (unit: μg/ml) of the four compounds.

[2] = system: mice ascites hepatoma cell strain H22; assay: Anti-tumor test in vivo, mice transplanted tumor of liver cancer H22; set-up: species or system Kunming mice
Method: The mice ascites hepatoma cell strain H22 is purchased from the Experimental Center of Zhongshan University.
Recovery the mice ascites hepatoma cell strain H22, put the cell suspension liquid into a centrifugal tube and use the 4° C. saline to wash the suspension liquid twice, then centrifuge to discard the supernatant, add appropriate 4° C. saline to dilute the suspension liquid, count cells with 0.2% trypan blue, adjust the density to 10^7 cell/ml, according to 0.2 (ml/mice) intraperitoneal inoculation H22 cell suspension liquid.
After ten days of the intraperitoneal inoculation, the cervical vertebra is dislocated. Disinfect the mice abdominal skin, and suck the milky ascites with a sterile syringe, then adjust the concentration of tumor cells to 1×10^7 cell/ml with injection used saline. Disinfect the right armpit skin of the Kunming mice with alcohol swab, subcutaneously vaccinate the cell suspension liquid 0.2 ml, conventional feeding. […] Totally there are 180 tumor-bearing mice.
(§6) The 180 tumor-bearing mice are divided into 18 groups by the weigh of the mice, wherein each group has 10 mice (half male and half female). The drug delivery methods of each group are shown in Table 3 to illustrate eighteen groups of mice drug delivery situation.
Group 1 is the model group, and the mice of group 1 are given the tail vein saline injection daily started on the second day of the tumor-bearing for 10 days.
(§7) Group 2 is the cyclophosphamide (CTX) group, and the mice of group 2 are only given the cyclophosphamide in the intraperitoneal of the mice on the second day of the tumor-bearing.
(§8) Group 3 to 18 groups are given the four compounds respectively, wherein the groups delivered 25 mg/kg drug are tail vein low-dose group, wherein the groups delivered 50 mg/kg drugs are the tail vein medium-dose group, wherein the groups delivered 100 mg/kg drugs are the tail vein high-dose group, wherein the groups delivered 200 mg/kg drugs are the oral enteral group. These mice from group 3 to 18 start the drug delivery on the second day of the tumor-bearing, and delivered once a day for 10 sequent days.
The above drug deliveries are 20 ml/kg.
After finishing the drug delivery process, weight the mice, then kill the mice by pulling off the neck, and anatomy to get the tumor tissue of the mice on the next day of finishing the drug delivery process, and then weight the anatomized tumor by electronic weighing scales to calculate the inhibition rate.

[3] = system: human normal embryonic kidney HEK-293 cells; assay: MTT test on normal cells, HEK-293; type: cell-based; conditions: HEK- (HEK-293), MTT, 48 hours
Text: as §1, §2
Subculture six kinds of cells, which has a logarithmic growing period, adherent rate about 80%, and in good condition, such as human cervical carcinoma Hela cells, human hepatoma BEL-7402 cells, mucinous Human epidermoid A549 lung cancer cells, human breast cancer MCF-7/S cells, human glioma U251 cells, and human normal embryonic kidney HEK-293 cells. […] Repeat the above experiment three times to get an average value.
as §4

[4] = system: human hepatoma BEL-7402 cells; assay: MTT anti-tumor test in vitro, BEL-7402; type: cell-based; conditions: Bel- (BEL-7402)
Text: as §1, §2, §3, §4, §5

[5] = system: human cervical carcinoma Hela cells; assay: MTT anti-tumor test in vitro, Hela; type: cell-based; conditions: for IC50 value: Hela, MTT, 48 hours
Text: as §1, §2, §3, §4, §5

[6] = single tail vein administration 350 mg/kg
Method: After the drug delivery, continuously observe the mice responses for 4 hours; after all, observe the mice twice a day (one is in the morning, and the other is in the afternoon) for 14 days, wherein the observation includes the appearance, behavior, secretions, excreta of the mice etc., and recording all the death situation, poisoning symptoms, the starting time and ending time of toxic reactions of the mice, severity, duration time of toxic, and to see if it is reversible reaction etc., sent it to the pathology examination if necessary, weight the mice before and after the drug delivered day of 3, 7, 10, and 14 days. After finishing the observation process, execute all of the mice, and anatomize the dead bodies of mice.

[7] = system: mucinous Human epidermoid A549 lung cancer cells; assay: MTT anti-tumor test in vitro, A549; type: cell-based; conditions: for IC50 value: A549, MTT, 48 hours
Text: as §1, §2, §3, §4, §5

[8] = Text: as §6, §7, §8
After the drug delivery, weight the mice weight, then execute the mice, and then weight the spleen and thymus weight by electronic weighting scale respectively. The spleen index and thymus index are the weight (mg) of mice spleen, thymus of each group/mice weight (g).

human glioma U251 cells = assay: MTT anti-tumor test in vitro, U251; type: cell-based
Text: as §1, §2, §3, §4, §5

[9] = average of three experiments ± SD, 48 hours
[10] = average of three experiments ± SD
[11] = ip. 60/single mg/kg on the second day of tumor-bearing
[12] = ip. 60/single mg/kg on the second day of tumor-bearing, H22 tumor-bearing mice

**Q.** With “2,4-dimethoxy-3-isopentenyl-cinnamic acid (E:Z=1:1) [I-d]” as the molecule, how does the IC50 value [1, 9] read?
**A.** The IC50 value was 193.46 ± 7.57 µg/mL.

**Q.** And the IC50 value ([1]; experiment 1, 48 hours)?
**A.** The IC50 value was 200 µg/mL.

**Q.** What about the IC50 value ([1]; experiment 2, 48 hours) of the same molecule?
**A.** Its IC50 value is 196 µg/mL.

**Q.** What about the Tumor weight/g ([2]; i.g. 200 mg·(kg·d)^−1, once a day for 10 days) of the same molecule?
**A.** The Tumor weight/g was 0.991 ± 0.410 g.

**Q.** What about the Tumor weight/g ([2]; i.v. 25 mg·(kg·d)^−1, once a day for 10 days) of the same molecule?
**A.** The Tumor weight/g was 1.307 ± 0.436 g.

**Q.** What about the “IR/% (inhibition rate)” value ([2]; i.v. 25 mg·(kg·d)^−1, once a day for 10 days (low-dose group)) of the same molecule?
**A.** Its value is 14.7%.

**Q.** And the Tumor weight/g ([2]; i.v. 50 mg·(kg·d)^−1, once a day for 10 days)?
**A.** The Tumor weight/g was 1.068 ± 0.437 g.

**Q.** What about the “IR/% (inhibition rate)” value ([2]; i.v. 50 mg·(kg·d)^−1, once a day for 10 days (medium-dose group)) of the same molecule?
**A.** Its value is 30.3%.

**Q.** And the Tumor weight/g ([2]; i.v. 100 mg·(kg·d)^−1, once a day for 10 days)?
**A.** Its Tumor weight/g is 0.901 ± 0.425 g.

**Q.** And the “IR/% (inhibition rate)” value ([2]; i.v. 100 mg·(kg·d)^−1, once a day for 10 days (high-dose group))?
**A.** The value was 41.2%.

**Q.** What about the IC50 value [3, 10] of the same molecule?
**A.** Its IC50 value is 350.77 ± 14.09 µg/mL.

**Q.** And the IC50 value ([3]; experiment 1)?
**A.** The IC50 value was 347 µg/mL.

**Q.** What about the IC50 value ([3]; experiment 2) of the same molecule?
**A.** The IC50 value was 366 µg/mL.

**Q.** What about the IC50 value [4, 9] of the same molecule?
**A.** Its IC50 value is 216.72 ± 5.07 µg/mL.

**Q.** What about the IC50 value ([4]; experiment 1, 48 hours) of the same molecule?
**A.** The IC50 value was 221 µg/mL.

**Q.** And the IC50 value ([4]; experiment 2, 48 hours)?
**A.** The IC50 value was 211 µg/mL.

**Q.** What about the IC50 value [5, 10] of the same molecule?
**A.** Its IC50 value is 153.59 ± 13.03 µg/mL.

**Q.** What about the IC50 value ([5]; experiment 1) of the same molecule?
**A.** The IC50 value was 144 µg/mL.

**Q.** What about the IC50 value ([5]; experiment 2) of the same molecule?
**A.** The IC50 value was 149 µg/mL.

**Q.** And the “HeLa cell proliferation IC50 values” ([5]; at 48 hours)?
**A.** Its value is 148.59 ± 5.96 µg/mL.

**Q.** What about the “drug reaction after administration” value [6] of the same molecule?
**A.** The value was “abnormally excited at first, and then become in an inhibit state”.

**Q.** And the IC50 value ([7]; experiment 1)?
**A.** The IC50 value was 190 µg/mL.

**Q.** What about the IC50 value ([7]; experiment 2) of the same molecule?
**A.** The IC50 value was 183 µg/mL.

**Q.** What about the “A549 cell proliferation IC50 values” ([7]; at 48 hours) of the same molecule?
**A.** Its value is 184.56 ± 5.80 µg/mL.

**Q.** And the “Mice weight/g After drug delivery” value ([8]; mouse, in vivo)?
**A.** Its value is 20.0 ± 2.1 g.

**Q.** And the “Mice weight/g Before drug deli.” value ([8]; mouse, in vivo)?
**A.** Its value is 24.6 ± 2.9 g.

**Q.** And the “effect near the tail vein of the mice and its surrounding tissue” value ([8]; mouse, in vivo)?
**A.** The value was “irritation or corrosive”.

**Q.** What about the “general observation after injection (central nervous signs)” value ([8]; mouse, in vivo) of the same molecule?
**A.** The value was “central nerve inhibition phenomenon”.

**Q.** And the “splenomegaly of the tumor-bearing mice” value ([8]; mouse, in vivo)?
**A.** The value was “can cause the splenomegaly”.

**Q.** What about the IC50 value (human glioma U251 cells; [9]) of the same molecule?
**A.** The IC50 value was 204.44 ± 9.50 µg/mL.

**Q.** What about the IC50 value (human glioma U251 cells; experiment 1, 48 hours) of the same molecule?
**A.** The IC50 value was 210 µg/mL.

**Q.** What about the IC50 value (human glioma U251 cells; experiment 2, 48 hours) of the same molecule?
**A.** Its IC50 value is 193 µg/mL.

**Q.** With `O=P1(N(CCCl)CCCl)NCCCO1` (centres unmarked) [CTX, cyclophosphamide, reference compound] as the molecule, how does the “IR/% (inhibition rate)” value [2, 11] read?
**A.** Its value is 55.2%.

**Q.** What about the Tumor weight/g [2, 11] of the same molecule?
**A.** Its Tumor weight/g is 0.686 ± 0.303 g.

**Q.** What about the “Mice weight/g After drug delivery” value [8, 12] of the same molecule?
**A.** Its value is 19.6 ± 2.0 g.

**Q.** What about the “Mice weight/g Before drug deli.” value [8, 12] of the same molecule?
**A.** Its value is 23.6 ± 1.8 g.

**Q.** And the “Spleen index/mg · g^−1” value [8, 12]?
**A.** Its value is 3.00 ± 0.59 mg/g.

**Q.** What about the “Thymus index/mg · g^−1” value [8, 12] of the same molecule?
**A.** Its value is 2.46 ± 0.65 mg/g.
